Measured values reported in ChEMBL document CHEMBL1268952, “Design, synthesis, and evaluation of indolinones as inhibitors of the transforming growth factor β receptor I (TGFβRI)” (J Med Chem, 2010).

Key:
TGF-beta receptor type-1 [1] = target: T1, TGF-beta receptor type-1 (Homo sapiens, UniProt P36897); experiment: Inhibition of TGFbeta receptor in human HaCaT cells assessed as Smad phosphorylation by ELISA; assay type: cell-based
T1 sequence (P36897 whole entry): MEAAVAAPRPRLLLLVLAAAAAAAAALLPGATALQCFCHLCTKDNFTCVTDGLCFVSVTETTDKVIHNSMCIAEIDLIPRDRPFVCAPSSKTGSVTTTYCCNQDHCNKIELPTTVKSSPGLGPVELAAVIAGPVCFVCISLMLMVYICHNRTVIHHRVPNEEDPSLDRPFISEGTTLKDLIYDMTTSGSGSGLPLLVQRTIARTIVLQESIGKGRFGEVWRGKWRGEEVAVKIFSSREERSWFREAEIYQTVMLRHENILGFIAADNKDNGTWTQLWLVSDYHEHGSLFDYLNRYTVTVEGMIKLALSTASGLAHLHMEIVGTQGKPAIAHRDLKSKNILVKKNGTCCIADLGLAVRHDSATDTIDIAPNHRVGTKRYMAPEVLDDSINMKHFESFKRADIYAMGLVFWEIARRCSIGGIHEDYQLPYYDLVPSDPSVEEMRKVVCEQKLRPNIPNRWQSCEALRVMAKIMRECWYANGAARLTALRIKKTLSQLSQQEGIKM

TGF-beta receptor type-1 [2] = target: T1, TGF-beta receptor type-1; experiment: Inhibition of TGFbeta receptor
[3] = target: Platelet-derived growth factor receptor alpha (Homo sapiens, UniProt P16234); experiment: Inhibition of PDGFRalpha
Sequence of Platelet-derived growth factor receptor alpha (P16234 whole entry): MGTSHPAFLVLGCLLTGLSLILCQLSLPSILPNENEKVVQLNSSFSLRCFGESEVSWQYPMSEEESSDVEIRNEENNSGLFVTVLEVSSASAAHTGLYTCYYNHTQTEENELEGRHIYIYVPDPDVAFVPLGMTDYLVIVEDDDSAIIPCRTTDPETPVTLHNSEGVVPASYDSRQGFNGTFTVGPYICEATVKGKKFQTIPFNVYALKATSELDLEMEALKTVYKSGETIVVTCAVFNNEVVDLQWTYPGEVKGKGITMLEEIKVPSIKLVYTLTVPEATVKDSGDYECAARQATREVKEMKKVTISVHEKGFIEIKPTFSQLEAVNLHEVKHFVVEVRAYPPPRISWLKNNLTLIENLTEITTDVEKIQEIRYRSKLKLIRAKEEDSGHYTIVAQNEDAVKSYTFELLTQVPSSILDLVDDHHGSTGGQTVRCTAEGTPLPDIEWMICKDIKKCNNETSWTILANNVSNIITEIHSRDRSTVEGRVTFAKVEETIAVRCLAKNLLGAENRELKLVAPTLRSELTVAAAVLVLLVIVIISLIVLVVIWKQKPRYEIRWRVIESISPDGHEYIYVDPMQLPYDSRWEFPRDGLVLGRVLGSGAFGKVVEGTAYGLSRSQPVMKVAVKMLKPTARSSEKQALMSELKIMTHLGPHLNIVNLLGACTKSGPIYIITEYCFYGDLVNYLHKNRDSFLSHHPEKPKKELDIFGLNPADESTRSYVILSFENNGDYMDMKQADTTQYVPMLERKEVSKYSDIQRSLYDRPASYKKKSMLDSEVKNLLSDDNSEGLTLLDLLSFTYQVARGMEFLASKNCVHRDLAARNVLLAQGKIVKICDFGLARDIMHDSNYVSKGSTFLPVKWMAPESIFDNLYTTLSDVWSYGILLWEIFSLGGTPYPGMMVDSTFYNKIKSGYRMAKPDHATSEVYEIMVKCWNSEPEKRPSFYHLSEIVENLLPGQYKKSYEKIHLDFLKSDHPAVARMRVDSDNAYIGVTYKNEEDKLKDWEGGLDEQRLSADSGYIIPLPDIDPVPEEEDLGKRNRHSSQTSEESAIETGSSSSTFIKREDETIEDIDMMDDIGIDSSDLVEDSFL

HaCaT = experiment: Cytotoxicity against human HaCaT cells

Row | Compound | EC50 (TGF-beta receptor type-1 [1]) [nM] | IC50 (TGF-beta receptor type-1 [2]) [nM] | IC50 [3] [nM] | IC50 (HaCaT) [nM]
1 | CCNC(=O)c1ccc2c(c1)NC(=O)/C2=C(\Nc1ccc(N(C)C(=O)CN2CCN(C)CC2)cc1)c1ccccc1 | 1370 | 9 | – | –
2 | CCNC(=O)c1ccc2c(c1)NC(=O)/C2=C(\Nc1ccc(CCN(C)C)cc1)c1ccccc1 | 135 | 47 | – | –
3 | CCN(CC)C(=O)c1ccc2c(c1)NC(=O)/C2=C(\Nc1ccc(CN2CCCCC2)cc1)c1ccccc1 | – | 625 | – | –
4 | CCN(C)C(=O)c1ccc2c(c1)NC(=O)/C2=C(\Nc1ccc(N(CCN(C)C)S(C)(=O)=O)cc1)c1ccccc1 | 209 | 7 | – | –
5 | CCNC(=O)c1ccc2c(c1)NC(=O)/C2=C(\Nc1ccc(N(C)C(=O)CN(C)C)cc1)c1ccccc1 | 3380 | 35 | – | –
6 | CCN(CC)CCNC(=O)c1ccc(N/C(=C2\C(=O)Nc3cc(C(=O)N(C)CC)ccc32)c2ccccc2)cc1 | 542 | 64 | – | –
7 | CCN(C)C(=O)c1ccc2c(c1)NC(=O)/C2=C(\Nc1ccc(C(=O)O)cc1)c1ccccc1 | – | 782 | – | –
8 | NC(=O)c1ccc2c(c1)NC(=O)/C2=C(\Nc1ccc(CN2CCCCC2)cc1)c1ccccc1 | > 50000 | 369 | – | –
9 | CCNC(=O)c1ccc2c(c1)NC(=O)/C2=C\Nc1ccc(N(C)C(=O)CN2CCN(C)CC2)cc1 | 2180 | 15 | > 5000 | –
10 | CCNC(=O)c1ccc2c(c1)NC(=O)/C2=C\Nc1ccc(N(C)C(=O)CN(C)C)cc1 | 4360 | 52 | – | –
11 | CCNC(=O)c1ccc2c(c1)NC(=O)/C2=C\Nc1ccc(N(CCCN(C)C)C(C)=O)cc1 | 597 | 17 | – | –
12 | CCNC(=O)c1ccc2c(c1)NC(=O)/C2=C\Nc1ccc(CN2CCCCC2)cc1 | 376 | 69 | – | –
13 | CCN(C)C(=O)c1ccc2c(c1)NC(=O)/C2=C(\Nc1ccc(N(CC(=O)N(C)C)S(C)(=O)=O)cc1)c1ccccc1 | > 3000 | 86 | – | –
14 | CCN(C)C(=O)c1ccc2c(c1)NC(=O)/C2=C(\Nc1ccc(N(C)C(=O)CN2CCN(C)CC2)cc1)c1ccccc1 | 833 | 7 | – | –
15 | CCN(C)C(=O)c1ccc2c(c1)NC(=O)/C2=C(\Nc1ccc(CCN(C)C)cc1)c1ccccc1 | 259 | 64 | – | > 1000
16 | CCN(C)C(=O)c1ccc2c(c1)NC(=O)/C2=C(\Nc1ccc(N(CCN(C)C)C(C)=O)cc1)c1ccccc1 | 102 | 8 | – | –
17 | CN(C)C(=O)c1ccc2c(c1)NC(=O)/C2=C(\Nc1ccc(CN2CCCCC2)cc1)c1ccccc1 | 246 | 35 | – | –
18 | O=C1Nc2cc(C(=O)NCCO)ccc2/C1=C(/Nc1ccc(CN2CCCCC2)cc1)c1ccccc1 | > 50000 | 430 | – | –

Row | Compound | EC50 (TGF-beta receptor type-1 [1]) [nM] | IC50 (TGF-beta receptor type-1 [2]) [nM] | IC50 [3] [nM] | IC50 (HaCaT) [nM]
19 | CCNC(=O)c1ccc2c(c1)NC(=O)/C2=C(\Nc1ccc(N(CCN(C)C)C(C)=O)cc1)c1ccccc1 | 1070 | 3 | – | –
20 | CNC(=O)c1ccc2c(c1)NC(=O)/C2=C(\Nc1ccc(CN2CCCCC2)cc1)c1ccccc1 | – | 32 | – | –
21 | CCNC(=O)c1ccc2c(c1)NC(=O)/C2=C(\Nc1ccc(N(CCCN(C)C)C(C)=O)cc1)c1ccccc1 | 1250 | 3 | – | –
22 | CCN(C)C(=O)c1ccc2c(c1)NC(=O)/C2=C(\NC1CCN(C)CC1)c1ccccc1 | > 10000 | > 50000 | > 5000 | –
23 | CCN(C)C(=O)c1ccc2c(c1)NC(=O)/C2=C(\NC1CCCCC1)c1ccccc1 | > 10000 | > 50000 | > 5000 | –
24 | CCNC(=O)c1ccc2c(c1)NC(=O)/C2=C(\Nc1ccc(C(=O)NCCN(CC)CC)cc1)c1ccccc1 | 505 | 33 | – | –
25 | CC(C)NC(=O)c1ccc2c(c1)NC(=O)/C2=C(\Nc1ccc(CN2CCCCC2)cc1)c1ccccc1 | 708 | 318 | – | –
26 | O=C1Nc2cc(C(=O)N3CCCC3)ccc2/C1=C(/Nc1ccc(CN2CCCCC2)cc1)c1ccccc1 | 696 | 245 | – | –
27 | O=C1Nc2cc(C(=O)NCc3ccccc3)ccc2/C1=C(/Nc1ccc(CN2CCCCC2)cc1)c1ccccc1 | – | 1530 | – | –
28 | CCN(C)C(=O)c1ccc2c(c1)NC(=O)/C2=C(\Nc1ccccc1)c1ccccc1 | – | 2590 | > 5000 | –
29 | CCN(CC)Cc1cccc(N/C(=C2\C(=O)Nc3cc(C(=O)N(C)CC)ccc32)c2ccccc2)c1 | – | 616 | – | –
30 | CCN(C)C(=O)c1ccc2c(c1)NC(=O)/C2=C(\Nc1ccc(N(CCCN(C)C)C(C)=O)cc1)c1ccccc1 | 411 | 9 | – | –
31 | CCN(C)C(=O)c1ccc2c(c1)NC(=O)/C2=C(\Nc1ccc(C(=O)OC)cc1)c1ccccc1 | – | 1970 | – | –
32 | CCCCNC(=O)c1ccc2c(c1)NC(=O)/C2=C(\Nc1ccc(CN2CCCCC2)cc1)c1ccccc1 | 1060 | 91 | – | –
33 | CCN(C)C(=O)c1ccc2c(c1)NC(=O)/C2=C(\Nc1ccc(N(C)C(=O)CN(C)C)cc1)c1ccccc1 | 382 | 29 | – | –
34 | CCNC(=O)c1ccc2c(c1)NC(=O)/C2=C(\Nc1ccc(CN2CCCCC2)cc1)c1ccccc1 | 75 | 24 | – | –
35 | CCN(C)C(=O)c1ccc2c(c1)NC(=O)/C2=C(\Nc1ccc(N(C)S(C)(=O)=O)cc1)c1ccccc1 | > 10000 | 231 | – | –
